Results on 69 compounds are retold here after PubChem BioAssay AID179 (DTP/NCI, 2004).

This test has as its system CEM cells HIV-1 protection, formazan growth assay. Briefly: NCI AIDS Antiviral Assay. Conditions: for IC50: measured here: growth of uninfected CEM cells. An outline of the steps: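 Protection of CEM cells against HIV-1 measured as cell growth via soluble formazan read-out, with five concentrations tested on both infected and uninfected cells; failure to protect may reflect toxicity.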

The source made the active and inactive calls.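 How the source made its calls: active means compounds giving half or more protection of infected cells from virus-caused growth loss, again on retest; inactive means the rest.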 Where only a bound is given, the exact number is not on record here.

For the compound `CN(C(=O)C1=CCC2(CC1)OCCO2)c1ccccc1OS(=O)(=O)C(F)(F)F`, the EC50 is more than 200 µM and the half-maximal inhibitory concentration (IC50) is more than 200 µM. `O=C1OC[C@H]2[C@@H]1[C@H]1O[C@@H]2C2=C(CCC2)C1=O`: the EC50 is more than 200 µM and the half-inhibitory concentration (IC50) was more than 200 µM. As for `COc1cc(-c2ccc(N=Nc3cc(S(=O)(=O)O)c4ccccc4c3O)c(OC)c2)ccc1N=Nc1cc(S(=O)(=O)O)c2ccccc2c1O`, the EC50 was 135 µM and the half-maximal inhibitory concentration (IC50) amounted to 141 µM. On to `O=C(O)c1cc2ccccc2[nH]c1=O`, for which the outcome was inactive. As for `COC(=O)c1ccccc1C1CN=NC12Cc1ccccc1C2=O` (stereo not drawn), the EC50 was more than 200 µM and the IC50 amounted to 120 µM. On the same counts, the results for `Cc1ccc(-c2c3c(n(C4OC(CO)C(O)C(O)C4O)c(=S)c2C#N)CC(C)(C)CC3=O)cc1` (stereo not drawn) are more than 200 µM and 97.7 µM. Consider `Cc1cc(N=Nc2ccc(NC(=O)c3ccc(N)cc3)cc2C)ccc1N=Nc1ccc2c(O)c(N=Nc3ccc(S(=O)(=O)O)cc3)c(S(=O)(=O)O)cc2c1`, for which the EC50 was 15.1 µM and the IC50 amounted to 105 µM. As to `CC(C)(CO)NC(=O)c1cccs1`, the EC50 is more than 200 µM and the IC50 is more than 200 µM. Take `O=c1[nH]cc(CN2CCOCC2)c(=O)[nH]1`: the EC50 is more than 617 µM and the IC50 was more than 617 µM. Turning to `CC(=O)CC(C)=O.CC(=O)CC(C)=O.CC(=O)CC(C)=O.[Mn]`, the EC50 was more than 200 µM and the concentration for half-maximal inhibition (IC50) was 25.7 µM. Consider `Cc1c(C(=O)CSc2nc3ccccc3c(=O)n2-c2ccccc2)c(=O)n(-c2ccccc2)n1C`, for which the EC50 is more than 5.62 µM and the 50% inhibitory concentration (IC50) was more than 5.62 µM.

For `Nc1nc(NNc2ccccc2F)cc(=O)[nH]1`, the EC50 is more than 200 µM and the half-inhibitory concentration (IC50) was determined as 28.2 µM. For `C=CCON(C(=O)OC(C)(C)C)C(C)(C)C` the same measures were more than 200 µM and more than 200 µM. For `C#CCCCCC#Cc1ccccc1C(=O)OC` the same measures were more than 151 µM and 28.8 µM. With `CN[C@@H](C)[C@@H](NC)c1ccccc1`, the outcome was inactive. With `COc1cc([C@@H]2C3C(=O)c4ccccc4C3[C@@H](c3cc(OC)c(OC)c(OC)c3)C23Cc2ccccc2C3=O)cc(OC)c1OC` (stereo partly drawn), the EC50 was more than 200 µM and the IC50 is 31.6 µM.

In the case of `COCn1c2ccc(OC(C)=O)cc2c2c(=O)oc(C)nc21`, the EC50 is more than 200 µM and the IC50 amounted to 170 µM.

As to `Cc1[nH]c2ccccc2c1C1Cc2ccccc2N1C(=O)/C=C\C(=O)O` (stereo not drawn), the EC50 was more than 724 µM and the IC50 was 41.7 µM.

On to `COc1ccc(C(c2c(O)c3ccccc3oc2=O)N2CCCC2)c(OC)c1` (stereo not drawn), for which the EC50 was more than 200 µM and the IC50 is 95.5 µM. On the same counts, the results for `Cc1ccc(S(=O)(=O)C2CC3CC2C2COCC32)cc1` (stereo not drawn) are more than 75.9 µM and more than 75.9 µM. Consider `CCOC(=O)CCC(NC(=O)c1ccc(Oc2nc3ccccc3nc2C(=O)OCC)cc1)C(=O)OCC` (stereo not drawn), for which the EC50 is more than 200 µM and the half-maximal inhibitory concentration (IC50) is more than 200 µM.

On to `CC1CCN(C(C)C)P(=S)(Cc2ccccc2)O1` (stereo not drawn), for which the EC50 is more than 200 µM and the half-inhibitory concentration (IC50) came to 123 µM. As for `Nc1nc(Cl)c(N)c(NCC2(CO)CCC2)n1`, the EC50 was more than 200 µM and the 50% inhibitory concentration (IC50) came to 115 µM. As for `Nc1nc(N)c(CCCCc2ccccc2)c(/C=C/c2ccc([N+](=O)[O-])cc2)n1`, the outcome was inactive. Consider `N#CC(F)(F)C(F)(F)C(F)(F)C(F)(F)C(F)(F)C(F)(F)C(F)(F)F`, for which the EC50 was more than 200 µM and the concentration for half-maximal inhibition (IC50) is more than 200 µM.

For `Cc1ccc(S(=O)(=O)n2cnc(CC(NC(=O)C3CCC(=O)N3C(=O)OCc3ccccc3)C(=O)N3CCCC3C(=O)NN)c2)cc1` (stereo not drawn), the EC50 was more than 200 µM and the 50% inhibitory concentration (IC50) was more than 200 µM. With `CC(C)(O)/C=C\P(=O)(O)O`, the EC50 is more than 200 µM and the 50% inhibitory concentration (IC50) was more than 200 µM. For `CCCCCCCOc1ccc(/C=C\c2cc[n+](CCCCCCCC[n+]3ccc(/C=C\c4ccc(OCCCCCCC)cc4)cc3)cc2)cc1`, the EC50 was more than 6.46 µM and the concentration for half-maximal inhibition (IC50) was more than 6.46 µM. As for `COc1ccc(Nc2nc(C#N)c(N)s2)cc1`, the EC50 is more than 490 µM and the 50% inhibitory concentration (IC50) was determined as 117 µM. On the same counts, the results for `Cc1c(C(=O)Nc2ccc(Cl)cc2)nc(N)nc1-c1cccc(Cl)c1` are more than 174 µM and more than 174 µM. `Cc1cc(O)c2c(c1)C(=O)C(c1c(C)cc3c(c1O)C(=O)C1OC1C3=O)=CC2=O` (stereo not drawn): the EC50 was more than 174 µM and the IC50 amounted to 0.0933 µM.

In the case of `CCNc1nnc(-c2ccccc2Nc2ccccc2-c2nnc(NCC)s2)s1`, the EC50 was more than 200 µM and the IC50 was 16.2 µM. For `CCOc1ccc(-n2c(=O)n3c(Nc4ccc(Cl)cc4)nc4c(c(=O)n(C)c(=O)n4C)n3c2=O)cc1` the same measures were more than 100 µM and 66.1 µM. Take `O=C1CSC(c2ccc(Cl)cc2Cl)N1c1ccc(Oc2ccc(Cl)cc2)c(Cl)c1` (stereo not drawn): the EC50 was more than 100 µM and the IC50 was determined as 26.3 µM. On the same counts, the results for `CNC(=O)NCNC(=O)NC` are more than 562 µM and more than 562 µM. For `CCOC(=O)c1cc(C2(OC)CCN(Cc3ccccc3)C2=O)c(-c2cc(C)no2)[nH]1` (stereo not drawn) the same measures were more than 200 µM and 148 µM.

Regarding `NC(Cc1csc2ccccc12)C(=O)O` (stereo not drawn), the EC50 is more than 200 µM and the half-inhibitory concentration (IC50) turned out to be 19.5 µM.

On to `CN(CCc1ccccn1)/[N+]([O-])=N/O` (tested in a mixture with another compound), for which the EC50 is more than 4680 µM and the IC50 is 3470 µM. For the compound `C[C@@]1(O)C2/C(=N/O)C3CC1(c1ccccc1)CC(/C3=N/O)C2c1ccccc1` (stereo partly drawn), the EC50 is more than 100 µM and the half-inhibitory concentration (IC50) is more than 100 µM. In the case of `CCOP(=O)(OCC)C(C1OC(n2ccc(=O)[nH]c2=O)C(O[Si](C)(C)C(C)(C)C)C1O[Si](C)(C)C(C)(C)C)N(C)O` (stereo not drawn), the EC50 was more than 200 µM and the half-inhibitory concentration (IC50) was found to be 4.79 µM. On the same counts, the results for `c1ccc(-c2sc(-c3cccs3)cc2Cc2cccs2)cc1` are more than 200 µM and 83.2 µM. Regarding `N.N.N.N.O=N[O-].O=N[O-].O=[N+]([O-])[O-].[Co+3]`, the EC50 was more than 200 µM and the half-maximal inhibitory concentration (IC50) was more than 200 µM. On to `c1ccc(OCc2nnc(CCCCCCCCc3nnc(COc4ccccc4)o3)o2)cc1`, for which the EC50 is more than 200 µM and the concentration for half-maximal inhibition (IC50) was more than 200 µM. Take `O=C1CC(c2ccc(Cl)cc2)NC(=O)N1CCN1CCCC1` (stereo not drawn): the EC50 was more than 200 µM and the 50% inhibitory concentration (IC50) was more than 200 µM. For `COC(=O)[C@H]1C2c3ccccc3-c3ccccc3C2(OC(C)=O)[C@@]1(Cl)C(=O)OC` (stereo partly drawn), the EC50 was more than 43.7 µM and the concentration for half-maximal inhibition (IC50) came out at 6.31 µM. For `COc1ccc(S(=O)(=O)n2c3c(c4ccccc42)[C@@H]2[C@@H](CCCN2C(=O)CS(=O)c2ccc(C)cc2)[C@H](Cl)C3)cc1` (stereo partly drawn) the same measures were more than 200 µM and more than 200 µM.

Consider `O=C(Nc1ccccc1C(=O)NCCCO)/C(=C/c1ccccc1O)NC(=O)c1ccccc1`, for which the EC50 is more than 200 µM and the half-inhibitory concentration (IC50) was more than 200 µM.

In the case of `CC(C)(C)C(=O)/C=C/c1cccc(C#N)c1`, the EC50 is more than 123 µM and the IC50 was found to be 6.61 µM. For `Cn1cc(-c2ccc3c4ccccc4n(C)c3c2)c2ccccc21` the same measures were more than 8.71 µM and more than 8.71 µM.

For the compound `COC(=O)Oc1nn(C(=O)OC)c(=O)c2ccccc12` (tested in a mixture with another compound), the EC50 was more than 200 µM and the IC50 is more than 200 µM. As for `C=C(C)[C@@H]1CC[C@]2(C(=O)O)CC[C@]3(C)[C@H](CCC4[C@@]5(C)CC[C@H](C(=O)/C=C/c6ccc(O)c(O)c6)C(C)(C)[C@@H]5CC[C@]43C)[C@@H]12` (stereo partly drawn), the EC50 was more than 200 µM and the IC50 was 2.29 µM. On the same counts, the results for `O=C1C=Cc2ccccc2/C1=C/c1[nH]c(=O)[nH]c1O` are more than 200 µM and 16.2 µM. Take `S=C1c2ccccc2NC(=NC2CCCC2)C2CSCN12` (stereo not drawn): the EC50 was more than 200 µM and the half-inhibitory concentration (IC50) was determined as 148 µM. With `C[C@@H](NC(=O)Cn1c(Cl)nc2ccccc21)c1ccccc1`, the EC50 is more than 200 µM and the IC50 came to 13.5 µM. On to `Ic1ccc(SSc2ccc(I)cc2)cc1`, for which the EC50 is more than 200 µM and the IC50 worked out at 6.61 µM. Consider `Cn1c(=O)cc(C=Nc2ccc(S(N)(=O)=O)cc2)c2ccccc21`, for which the EC50 was more than 200 µM and the 50% inhibitory concentration (IC50) turned out to be 1.51 µM. As for `CCCCCCCCCCCCn1[se]c2ccccc2c1=O`, the concentration for a half-maximal effect (EC50) is 5.01 µM and the IC50 worked out at 5.5 µM.

As to `Cc1cnc(/N=c2\sc(C)cn2-c2ncc(C)s2)s1`, the EC50 was more than 200 µM and the 50% inhibitory concentration (IC50) was more than 200 µM. As for `O=C(c1ccccc1)[C@@]12COc3ccccc3[C@@H]1ON=C2c1ccccc1`, the EC50 is more than 10.7 µM and the half-maximal inhibitory concentration (IC50) was more than 10.7 µM. As to `CC(=O)c1ccc2c(ccc(=O)n2C)c1`, the EC50 was more than 468 µM and the IC50 came to 107 µM. Take `CCCCN(CCCC)CC(C(=O)Nc1ccc([N+](=O)[O-])cc1[N+](=O)[O-])/C(C)=N\NC(=O)c1ccncc1` (stereo not drawn): the EC50 was more than 56.2 µM and the 50% inhibitory concentration (IC50) is more than 56.2 µM. `C=CCCC(C)N(C(=O)OC(C)(C)C)S(=O)(=O)c1ccc(C)cc1` (stereo not drawn): the EC50 was more than 14.8 µM and the IC50 is more than 14.8 µM. For `COC(=O)C(=O)C(C(=O)C(=O)Nc1ccc([N+](=O)[O-])cc1[N+](=O)[O-])c1nc2ccc([N+](=O)[O-])cc2[nH]c1=O` (stereo not drawn), the EC50 is more than 468 µM and the IC50 amounted to 141 µM. Consider `CCCCCCCCCCCCC(CCCCCCCCCCCC)OP(=O)(O)O`, for which the result was inactive. On to `CCCCNC(C)(C)C(SSSC(c1ccco1)C(C)(C)NCCCC)c1ccco1` (stereo not drawn), for which the EC50 was more than 200 µM and the IC50 turned out to be 30.9 µM. Turning to `c1ccc(N2N=NC3C4CC(C5c6ccccc6C45)C32)cc1` (stereo not drawn), the result was inactive. On to `Nc1ncn(C2OC(COP(=O)(O)O)C(O)C2O)c(=O)n1` (stereo not drawn), for which the EC50 is more than 200 µM and the IC50 amounted to 8.51 µM. For the compound `CSC1OC(C)(C)OC1=O` (stereo not drawn), the EC50 is more than 200 µM and the IC50 was more than 200 µM. Turning to `Cn1c(=O)[nH]c(=O)c2[nH]c(=O)c(=O)n(C)c21`, the EC50 is more than 200 µM and the IC50 is more than 200 µM.
